Test results reported in ChEMBL document CHEMBL1128152, “Active-site conformation of 17-(3-pyridyl)androsta-5,16-dien-3-ol, a potent inhibitor of the P450 enzyme C17-hydroxylase/C17-20 lyase” (Bioorg Med Chem Lett, 1995).

Molecular target: T1, Steroid 17-alpha-hydroxylase/17,20 lyase (Homo sapiens, UniProt P05093)
T1 sequence (P05093 whole entry): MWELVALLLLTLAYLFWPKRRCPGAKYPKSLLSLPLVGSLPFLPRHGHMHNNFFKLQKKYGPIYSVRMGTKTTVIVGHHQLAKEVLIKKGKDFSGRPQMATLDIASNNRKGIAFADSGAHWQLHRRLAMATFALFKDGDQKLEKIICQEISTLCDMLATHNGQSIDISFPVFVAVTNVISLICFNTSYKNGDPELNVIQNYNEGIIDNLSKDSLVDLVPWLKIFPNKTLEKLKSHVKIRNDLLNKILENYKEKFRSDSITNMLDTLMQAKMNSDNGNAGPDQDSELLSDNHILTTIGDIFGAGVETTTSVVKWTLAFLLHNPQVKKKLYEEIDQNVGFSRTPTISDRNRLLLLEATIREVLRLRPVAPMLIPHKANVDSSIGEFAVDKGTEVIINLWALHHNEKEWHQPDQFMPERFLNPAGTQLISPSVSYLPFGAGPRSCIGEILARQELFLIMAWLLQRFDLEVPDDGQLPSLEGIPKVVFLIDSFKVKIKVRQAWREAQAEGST
Assay: Inhibition of human Steroid 17-alpha-hydroxylase/17,20 lyase

SMILES: C[C@]12CC[C@H](O)CC1=CC[C@@H]1[C@@H]2CC[C@]2(C)C(c3cccnc3)=CC[C@@H]12 [ABIRATERONE]
- IC50: ~1 nM
